Tests used:
[1] = Visible absorption spectrum (largest absorption wavelength, ε); format: physicochemical
[2] = Solubility in 2-ethoxyethanol

| Compound | Visible absorption spectrum, Thin film [1] | Largest absorption wavelength in 2-ethoxyethanol [1] | ε at largest absorption wavelength in 2-ethoxyethanol [1] | further results |
| --- | --- | --- | --- | --- |
| Clc1c(Cl)c(Cl)c2c(c1Cl)-c1nc-2nc2[n-]c(nc3nc(nc4[n-]c(n1)c1c(Cl)c(Cl)c(Cl)c(Cl)c41)-c1c(Cl)c(Cl)c(Cl)c(Cl)c1-3)c1c(Cl)c(Cl)c(Cl)c(Cl)c21.[O]=[V+2] [Example 12, hexadecachlorovanadylphthalocyanine] | – | – | – | Largest absorption wavelength in 1-chloronaphthalene [1]: 712.4 nm; ε at largest absorption wavelength in 1-chloronaphthalene [1]: 1.65 × 10^5 |
| Fc1c(F)c(F)c2c(c1F)-c1nc-2nc2[n-]c(nc3nc(nc4[n-]c(n1)c1c(F)c(F)c(F)c(F)c41)-c1c(F)c(F)c(F)c(F)c1-3)c1c(F)c(F)c(F)c(F)c21.[O]=[V+2] [Example 7, hexadecafluorovanadyl phthalocyanine] | – | – | – | Largest absorption wavelength in 1-chloronaphthalene [1]: 710.2 nm; ε at largest absorption wavelength in 1-chloronaphthalene [1]: 1.89 × 10^5; Largest absorption wavelength in 1-chloronaphthalene ([1]; listed as Example 8): 710.1 nm; ε at largest absorption wavelength in 1-chloronaphthalene ([1]; listed as Example 8): 1.77 × 10^5 |
| octaphenoxyoctafluorovanadyl phthalo-cyanine [Example 11] | – | – | – | Largest absorption wavelength in acetone ([1]; in acetone): 720 nm |
| [O]=[Ti+2].c1ccc2c(c1)-c1nc-2nc2[n-]c(nc3nc(nc4[n-]c(n1)c1ccccc41)-c1ccccc1-3)c1ccccc21 [Example 13, titanylphthalocyanine] | – | – | – | Largest absorption wavelength in 1-chloronaphthalene [1]: 710.5 nm; ε at largest absorption wavelength in 1-chloronaphthalene [1]: 1.33 × 10^5 |
| octakisphenylthiooctafluorovanadyl phthalocyanine [Example 10] | – | – | – | Largest absorption wavelength in toluene ([1]; in toluene): 770 nm |
| tetrakis(2-(2-ethoxyethoxy)carbonyl-6-methoxyphenoxy)dodecafluorovanadyl phthalocyanine [Example 6] | 733.0 nm | 715.2 nm | 1.37 × 10^5 | Solubility in 2-ethoxyethanol [2]: 13 wt. % |
| tetrakis(2-(2-ethoxyethoxy) dodecafluorovanadyl phthalocyanine [Example 14] | – | 709.0 nm | 1.26 × 10^5 | – |

Continued, in another order:

| Visible absorption spectrum, Thin film [1] | Largest absorption wavelength in 2-ethoxyethanol [1] | ε at largest absorption wavelength in 2-ethoxyethanol [1] | Compound | further results |
| --- | --- | --- | --- | --- |
| 732.3 nm | 714.7 nm | 1.22 × 10^5 | tetrakis(2-(2-tetrahydrofurfuryloxy)-carbonyl-6-phenylphenoxy)dodecafluorovanadyl phthalocyanine [Example 4] | – |
| 732.2 nm | 715.0 nm | 1.52 × 10^5 | tetrakis(2-(2-propoxy)carbonyl-6-phenylphenoxy)dodecafluorovanadyl phthalocyanine [Example 1] | – |
| 732.0 nm | 712.5 nm | 1.10 × 10^5 | tetrakis(2-(2-methoxyethoxy)carbonyl-6-methylphenoxy)dodecachlorovanadyl phthalocyanine [Example 9] | – |
| 732.8 nm | 710.4 nm | 1.32 × 10^5 | tetrakis(2-(2-methoxyethoxy)carbonyl-6-methylphenoxy)dodecafluorovanadyl phthalocyanine [Example 5] | – |
| 730.6 nm | 713.7 nm | 1.42 × 10^5 | tetrakis(2-(2-methoxyethoxy)carbonyl-6-phenylphenoxy)dodecafluorovanadyl phthalocyanine [Example 3] | – |
| 731.6 nm | 714.5 nm | 1.75 × 10^5 | tetrakis(2-(1,3-dibromo-2-propoxy)-carbonyl-6-phenylphenoxy)dodecafluorovanadyl phthalocyanine [Example 2] | – |

Source: patent US6034236A, “Method for producing of phthalocyanine compound” (Nippon Shokubai Co., Ltd., priority 1997, dated 2000)
